No end group written: not given here.
How the values were obtained:
Format in all cases: cell-based
Escherichia coli D22 = assay: Antibacterial activity by microspectrophotometry; settings: Escherichia coli D22, Gram -; 24 hours at 25° C., absorbance at 600 nm
Experimental: (§1) Pure each strain of bacteria used (E. coli; M. luteus), an isolated […] is suspended in 10 ml of DIFCO PB medium (Poor Broth, Luria Bertani medium free of yeast extract) and incubated at 30° C. overnight with slow stirring.
(§2) The bacteria to be tested are brought to an optical density at 600 nm of 0.001 in fresh culture medium. 10 μl of each fraction is deposited in microtitration plates in the presence of 100 μl of the bacterial suspension. After incubation for 24 hours at 25° C., the growth is evaluated by measuring the absorbance at 600 nm using a microtitration plate reader.

Escherichia coli D31 = assay: Antibacterial activity by microspectrophotometry; settings: Escherichia coli D31, Gram -; 24 hours at 25° C., absorbance at 600 nm
Experimental: as §1, §2

Micrococcus luteus = assay: Antibacterial activity by microspectrophotometry
Experimental: as §1, §2

Aerococcus viridans = assay: Antibacterial activity by microspectrophotometry; settings: Gram +, 24 hours at 25° C., absorbance at 600 nm
Bacillus subtilis = assay: Antibacterial activity by microspectrophotometry; settings: Gram +, 24 hours at 25° C., absorbance at 600 nm
Staphylococcus aureus = assay: Antibacterial activity by microspectrophotometry; settings: Gram +, 24 hours at 25° C., absorbance at 600 nm
[1] = test system: Clavibacter michiganensis; assay: Antibacterial activity by microspectrophotometry
Experimental: as §1, §2
(§3) Using the same protocol but with phytopathogenic bacteria, the following results are obtained: […]

Salmonella typhimurium = assay: Antibacterial activity by microspectrophotometry; settings: Gram -, 24 hours at 25° C., absorbance at 600 nm
Pseudomonas maculicola = assay: Antibacterial activity, phytopathogenic bacteria; settings: same protocol
Experimental: as §1, §2, §3

Pseudomonas syr phaseoli = assay: Antibacterial activity, phytopathogenic bacteria; settings: same protocol
Experimental: as §1, §2, §3

[2] = test system: Pseudomonas syringae pv syringae; assay: Antibacterial activity, phytopathogenic bacteria; settings: same protocol
Experimental: as §1, §2, §3

Pseudomonas syringae = assay: Antibacterial activity, phytopathogenic bacteria; settings: same protocol
Experimental: as §1, §2, §3

Pseudomonas valerianella = assay: Antibacterial activity, phytopathogenic bacteria; settings: same protocol
Experimental: as §1, §2, §3

[3] = test system: Xanthomonas campestris pv campestris; assay: Antibacterial activity, phytopathogenic bacteria; settings: same protocol
Experimental: as §1, §2, §3

Xanthomonas phaseolica = assay: Antibacterial activity, phytopathogenic bacteria; settings: same protocol
Experimental: as §1, §2, §3

[4] = test system: Xanthomonas vesicatoria 687.3; assay: Antibacterial activity, phytopathogenic bacteria; settings: same protocol
Experimental: as §1, §2, §3

[5] = test system: Xanthomonas vesicatoria B229RI; assay: Antibacterial activity, phytopathogenic bacteria; settings: same protocol
Experimental: as §1, §2, §3

Alternaria dauci = assay: Antifungal activity, phytopathogenic fungi
Experimental: as §1, §2
(§4) Using the same protocol but with phytopathogenic fungi, the following results are obtained: […]

Botrytis petuniae = assay: Antifungal activity, phytopathogenic fungi
Experimental: as §1, §2, §4

Fusarium oxysporum L = assay: Antifungal activity, phytopathogenic fungi
Experimental: as §1, §2, §4

[6] = test system: Fusarium oxysporum meloni; assay: Antifungal activity, phytopathogenic fungi
Experimental: as §1, §2, §4

Stemphyllium = assay: Antifungal activity, phytopathogenic fungi
Experimental: as §1, §2, §4

Verticilium toreillis = assay: Antifungal activity, phytopathogenic fungi
Experimental: as §1, §2, §4

bovine red blood cells = assay: Hemolytic test; settings: synthetic molecule
Experimental: (§5) All of the antibacterial and hemolytic tests are carried out with the synthetic molecule.

porcine red blood cells = assay: Hemolytic test; settings: synthetic molecule
Experimental: as §5

[7] = medium supplemented with 1 mM CaCl2 and 20 mM KCl

For “androctonine (RSVCRQIKICRRRGGCYYLCTNRPY; disulfide (positions not given here)) [peptide from scorpion Androctonus australis hemolymph; 4 cysteine residues in two intramolecular disulfide bridges; tests done with the synthetic molecule]”, the MIC (Escherichia coli D22) was greater than 30 µM, the MIC (Escherichia coli D31) was 3 to 6 µM and the MIC (Micrococcus luteus; Micrococcus luteus, Gram +, 24 hours at 25° C., absorbance at 600 nm) was 0.6 to 1.5 µM. For the same substance, the “antibacterial activity of synthetic molecule compared with native molecule” value (Micrococcus luteus; bacterium Micrococcus liteus, synthetic (FMOC, renatured) vs native) was “same antibacterial activity as the native molecule”, the MIC (Aerococcus viridans) was 0.3 to 0.6 µM and the MIC (Bacillus subtilis) was 1.5 to 3.0 µM. It also gave an MIC (Staphylococcus aureus) of 15 to 30 µM, an MIC ([1]; Clavibacter michi ganensis, Gram +, Table 1, 24 hours at 25° C., absorbance at 600 nm) of 6 to 15 µM and an MIC ([1]; Clavibacter michiganensis, Table 2, phytopathogenic bacteria, same protocol) of 6 to 15 µM. For the same substance, the MIC (Salmonella typhimurium) was 3 to 6 µM, the MIC (Pseudomonas maculicola) was 3 to 6 µM and the MIC (Pseudomonas syr phaseoli) was 2 to 4 µM. It also gave an MIC [2] of 15 to 22 µM, an MIC (Pseudomonas syringae) of 0.5 to 1 µM and an MIC (Pseudomonas valerianella) of 15 to 22 µM. It also gave an MIC [3] of 3 to 6 µM, an MIC (Xanthomonas phaseolica) of 1 to 2 µM and an MIC [4] of 1.5 to 3 µM. For the same substance, the MIC [5] was 1.5 to 3 µM, the MIC with salts (Alternaria dauci; [7]) was 16 to 32 µM and the MIC without salts (Alternaria dauci; without salts) was 4.1 to 8.2 µM. The MIC with salts (Botrytis petuniae; [7]) was greater than 32 µM, the MIC without salts (Botrytis petuniae; without salts) was 4 to 8 µM and the MIC with salts (Fusarium oxysporum L; [7]) was greater than 32 µM. It also gave an MIC without salts (Fusarium oxysporum L; without salts) of 2 to 4 µM, an MIC without salts [6] of 2 to 4 µM and an MIC with salts (Stemphyllium; [7]) of 16 to 32 µM. The MIC without salts (Stemphyllium; without salts) was 4 to 8 µM, the MIC with salts (Verticilium toreillis; [7]) was greater than 32 µM and the MIC without salts (Verticilium toreillis; without salts) was 2 to 4 µM. For the same substance, the “lytic effect on red blood cells” value (bovine red blood cells) was “no lytic effect” and the “lytic effect on red blood cells” value (porcine red blood cells) was “no lytic effect”.

From patent US6127336A, “Antibacterial and antifungal peptide” (priority 1996, dated 2000)
